Assay results published in ChEMBL document CHEMBL3045772, “Amide derivatives of [6-acyl-2-benzothiazolinon-3-yl] acetic acids as potential analgesic and anti-inflammatory compounds” (Med Chem Res, 2010).

Columns and labels:
Format in all cases: functional
Mus musculus [1] = assay: Anti-inflammatory activity in Mus musculus Swiss albino (mouse) assessed as inhibition of carrageenan-induced edema at 10 mg/kg, po pretreated 60 min before carrageenan-challenge measured after 360 min
Mus musculus [2] = assay: Anti-inflammatory activity in Mus musculus Swiss albino (mouse) assessed as inhibition of carrageenan-induced edema at 10 mg/kg, po pretreated 60 min before carrageenan-challenge measured after 90 min
Mus musculus [3] = assay: Anti-inflammatory activity in Mus musculus Swiss albino (mouse) assessed as inhibition of carrageenan-induced edema at 10 mg/kg, po pretreated 60 min before carrageenan-challenge measured after 180 min
Mus musculus [4] = assay: Anti-inflammatory activity in Mus musculus Swiss albino (mouse) assessed as inhibition of carrageenan-induced edema at 10 mg/kg, po pretreated 60 min before carrageenan-challenge measured after 270 min

In the case of `COc1ccc2c(c1)c(CC(=O)O)c(C)n2C(=O)c1ccc(Cl)cc1` [INDOMETHACIN], the inhibition in vivo at 10 mg/kg (Mus musculus [1]) is reported as 40.1%, the inhibition in vivo at 10 mg/kg (Mus musculus [2]) is reported as 25.4% and the inhibition in vivo at 10 mg/kg (Mus musculus [3]) is reported as 30.7%. For the same molecule, the inhibition in vivo at 10 mg/kg (Mus musculus [4]) was 36.2%.
